The subject of data set [1] is partial sciatic nerve ligation model in rats. Description: Analgesic effect in a Seltzer model, Evaluation (1): mechanical allodynia, von Frey filaments. The format is in vivo. The note with it: rat, oral single administration, at 3 hours, read-out: analgesic effect, percent reversal of mechanical allodynia. From the text: Rats were anaesthetized using isoflurane/O2 inhalation anaesthesia. After induction of anesthesia, the left thigh was shaved. An incision was made in the skin just below the hip bone. The muscle was bluntly dissected to expose the sciatic nerve. One third (⅓) to one half (½) of the sciatic nerve thickness was tightly ligated and the wound was closed. The right thigh is used as a sham-operated control. The right thigh undergoes an identical procedure with the left hind limb, however, the sciatic nerve is not manipulated or ligated.
Two weeks after nerve ligation, the effect on mechanical allodynia was assessed using a series of von Frey filaments. For habituation, the rats were placed into a plastic cage on a wire mesh bottom. The mechanical sensitivity (mechanical threshold) of the hind paws was estimated with a series of von Frey filaments (0.4-20 g). The measurement of mechanical sensitivity of the right and left hind paws was performed to obtain predose mechanical sensitivity. The rats showing thee threshold change from 0.6 to 2 g (in nerve ligated side) and 8 to 15 g (in sham operated side) were used in the experiments. On the day belone the experiment, the rats were evaluated with a series of von Frey filaments to familiarize them with the test procedure. The adopted animal was administrated with the test compounds. The test compounds were homogenized with mortar and pestle and suspended or diluted in 0.5% Methyl Cellulose to prepare 0.1-2.0 mg/mL/kg suspension and orally administered to rat using a syringe attached with a sonde. Post-dose mechanical sensitivities of the right and left hind paws were measured at approximately 1 to 5 hours after drug administration. Percent reversal of mechanical allodynia for each rat was calculated using the following formula. The analgesic effects of the compounds were compared.

Another data set concerns serum. Description: Protein binding test (equilibrium dialysis, serum). It is filed as in vitro ADME. Particulars: 37° C., 24 hours, 2 μg/mL. As for the experimental part: The unbound fraction the present compound in serum was measured using serum of various species.
The reactive conditions are as follows: Evaluation method, Equilibrium dialysis; Reaction time, 24 hours; Reaction temperature, 37° C.; Concentration of the present compound, 2 μg/mL.
The test solution was added to each serum and the mixture was agitated to prepare the serum samples at the concentration mentioned above. Each serum sample was added into one side or the cell and phosphate buffered saline (PBS) was added into the other side to perform equilibrium dialysis at 37° C. for 24 hours. Then, the concentration of the compounds in the samples that were obtained from both sides was measured by LC/MS/MS.
(Result) The ratio of PBS concentration to serum concentration is expressed as unbound fraction.

The target in the next data set is CYP3A4 (Homo sapiens (Human), UniProt P08684). Description: CYP3A4 fluorescent MBI test. It is filed as in vitro ADME. Particulars: substrate 7-BFC, pre-reaction time 0 or 30 minutes. As for the experimental part:
The CYP3A4 fluorescent MBI test is a test of investigating enhancement or CYP3A4 inhibition of a compound by a metabolism reaction, and the test was performed using, as CYP3A4 enzyme expressed in Escherichia coli and employlng, as an index, a reaction in which 7-benzyloxytrifluoromethylchmarin (BFC) is debenzylated by the CYP3A4 enzyme to produce a metabolite, 7-hydroxytrifluoromethylchmarin (HFC) emitting fluorescent light.
The reaction conditions were as follows: substrate, 5.6 μmol/L 7-BFC; pre-reaction time, 0 or 30 minutes; reaction time, 15 minutes; reaction temperature, 25° C.
An enzyme in a K-Pi buffer (pH 7.4) and a test drug solution as a pre-reaction. solution were added to a 96-well plate at the composition of the pre-reaction, a part of it was transferred to another 96-well plate so that it was 1/10 diluted by a substrate in a K-Pi buffer, NADPH as a co-factor was added to initiate a reaction as an index (without preincubation) and, after a predetermined time of a reaction, acetonitrile:0.5 mol/L Tris (trishydroxyaminomethane)=4:1 was added to stop the reaction. […] For the plate on which each index reaction had been performed, a fluorescent value of 7-HFC which is a metabolite was measured with a fluorescent plate reader. […]

Some results are limits rather than exact numbers.

Chain of CYP3A4 (P08684 whole entry): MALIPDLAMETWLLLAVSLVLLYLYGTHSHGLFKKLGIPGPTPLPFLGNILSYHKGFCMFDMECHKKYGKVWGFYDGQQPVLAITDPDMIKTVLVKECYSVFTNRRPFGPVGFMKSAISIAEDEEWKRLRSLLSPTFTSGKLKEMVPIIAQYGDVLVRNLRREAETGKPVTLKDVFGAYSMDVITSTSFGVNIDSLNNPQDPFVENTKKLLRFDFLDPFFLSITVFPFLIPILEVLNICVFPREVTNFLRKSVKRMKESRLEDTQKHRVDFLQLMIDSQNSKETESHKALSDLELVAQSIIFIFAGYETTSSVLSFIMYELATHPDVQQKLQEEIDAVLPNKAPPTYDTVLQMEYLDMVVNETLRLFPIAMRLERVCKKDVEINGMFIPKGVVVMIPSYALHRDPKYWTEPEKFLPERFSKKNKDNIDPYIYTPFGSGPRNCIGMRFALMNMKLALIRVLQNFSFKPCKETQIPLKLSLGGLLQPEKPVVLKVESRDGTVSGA

Take `O=c1[nH]/c(=N\c2ccc(Oc3ccon3)cc2)n(Cc2ccc(Cl)cc2)c(=O)n1CC(CO)CO` [Compound I-2291]: the inhibition in vivo at 3 mg/kg in data set [1] is over 30%. Further, the “unbound fraction (ratio of PBS concentration to serum concentration)” value in the data set on serum stood at 4.5%.
The term IC50 denotes the concentration that gives 50% inhibition. For `C[C@@H](Cn1c(=O)[nH]/c(=N\c2ccc(OCC3CC3)cc2)n(Cc2ccc(Cl)cc2)c1=O)C(=O)O` [Compound I-0837], at CYP3A4, the IC50 is at most 3 µM. Besides, in the data set with serum, the “unbound fraction (ratio of PBS concentration to serum concentration)” value was 2.1%.
